“And” between values parts separate entries of the source, which are not always exact repeats. Equal values may be shown once. The source made the active and inactive calls. Cut-off read from the data, not from the text of the source, for most assays here: actives have a measured EC50 and inactives only a lower limit.
Legend:
Cytochrome P450 3A4 = Cytochrome P450 3A4 (Homo sapiens, UniProt P08684);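 note: CYP3A4 tested as one member of a cytochrome P450 panel screen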
[1] = inhibitors of intracellular T. cruzi replication, confirmation, NIH3T3 host cells, beta-gal luminescence (AID 2044); type: functional, cell-based;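 note: intracellular parasites grown in NIH/3T3 mouse fibroblasts as host cells; luminescent beta-galactosidase reporter signal from transgenic T. cruzi replicating inside host cells; inhibitors lower the luminescence signal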
[2] = cytotoxicity toward NIH3T3 fibroblasts, dose response, counter-screen, cell-based, ATP luminescence, mouse fibroblasts (AID 2010); type: functional;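 note: cells exposed to compound for about 90 hours before reading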
[3] = molecular target: T1, Heat shock factor protein 1 (Mus musculus, UniProt P38532); assay: inhibition of MG132-induced HSE-luciferase signal, confirmation, cell-based, NIH3T3, luminescence, dose retest (AID 2382); type: functional;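 note: NIH3T3 fibroblasts with HSF1-driven luciferase reporter stressed by proteasome inhibitor MG132; luminescence from HSF1-driven luciferase expression after 8 hours of MG132 stress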
T1 sequence (P38532 whole entry): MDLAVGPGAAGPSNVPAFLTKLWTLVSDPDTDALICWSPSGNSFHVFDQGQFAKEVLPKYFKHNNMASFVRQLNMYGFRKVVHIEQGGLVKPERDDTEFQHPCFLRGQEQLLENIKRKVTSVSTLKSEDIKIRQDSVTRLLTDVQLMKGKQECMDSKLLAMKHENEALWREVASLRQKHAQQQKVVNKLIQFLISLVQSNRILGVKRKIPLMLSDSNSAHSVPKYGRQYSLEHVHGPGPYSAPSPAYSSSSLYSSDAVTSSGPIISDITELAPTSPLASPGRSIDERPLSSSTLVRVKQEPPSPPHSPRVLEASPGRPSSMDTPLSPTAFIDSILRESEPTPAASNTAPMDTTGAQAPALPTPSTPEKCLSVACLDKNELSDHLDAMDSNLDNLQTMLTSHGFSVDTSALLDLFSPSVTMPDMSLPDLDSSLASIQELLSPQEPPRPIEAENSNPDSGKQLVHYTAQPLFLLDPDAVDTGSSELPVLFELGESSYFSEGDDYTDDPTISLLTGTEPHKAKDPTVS

INS1 = assay: beta cell apoptosis inhibitors, cytokine rescue, dose response, luminescence, retest (AID 449756); type: functional, cell-based; conditions: Rattus norvegicus;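 note: cell death triggered by IL-1 beta plus TNF-alpha plus IFN-gamma mixture; protective hits raise ATP signal compared with cytokine alone wells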

Cytochrome P450 3A4, sequence (P08684 whole entry): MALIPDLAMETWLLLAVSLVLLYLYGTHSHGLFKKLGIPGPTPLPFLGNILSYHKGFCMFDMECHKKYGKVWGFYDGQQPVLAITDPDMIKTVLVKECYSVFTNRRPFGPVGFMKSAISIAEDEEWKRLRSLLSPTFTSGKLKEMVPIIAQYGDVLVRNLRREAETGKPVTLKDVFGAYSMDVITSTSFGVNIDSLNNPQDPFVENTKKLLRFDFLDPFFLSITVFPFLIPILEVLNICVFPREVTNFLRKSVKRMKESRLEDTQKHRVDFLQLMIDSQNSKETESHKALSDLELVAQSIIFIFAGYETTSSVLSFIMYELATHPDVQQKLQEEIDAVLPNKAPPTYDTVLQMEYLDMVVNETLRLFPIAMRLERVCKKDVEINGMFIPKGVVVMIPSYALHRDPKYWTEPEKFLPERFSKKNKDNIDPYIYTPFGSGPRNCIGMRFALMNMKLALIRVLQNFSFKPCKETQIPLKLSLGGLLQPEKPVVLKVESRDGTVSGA

In the case of Cc1ccc([C@@H](O)c2cnc(C)n2Cc2ccccc2)cc1, the AC50 (Cytochrome P450 3A4) is reported as 5.01 µM (inconclusive).

For C[C@@H](c1ccccc1)N1C(=O)[C@H]2[C@H]3[C@H](O)[C@H](O)C/C(=N/OCc4ccccc4)[C@H]3CC[C@@H]2C1=O, the AC50 (Cytochrome P450 3A4) was 3.16 µM (inconclusive).

In the case of COc1ccc(OC)c(C2/C(=C(\O)c3ccccc3)C(C)=Nc3nc4ccccc4n32)c1 (stereo not drawn), the EC50 [1] is reported as 1.51 µM (active) and the EC50 [2] is reported as > 60 µM (not active).

For Cn1c(=O)c2nc(CCCc3ccc([N+](=O)[O-])cc3)[nH]c2n(C)c1=O, the AC50 (Cytochrome P450 3A4) was 3.98 µM (inconclusive).

For Cc1c(-c2ccccc2)[n+]([O-])c2c([n+]1[O-])CCC2, the EC50 [3] was > 195 µM (not active).

With NC(=O)c1ccsc1NC(=O)C1CCCCC1 the EC50 [3] was > 195 µM (not active).

In the case of Cc1ccc(S(=O)(=O)N(C)c2ccccc2C(=O)NC2CCCC2)cc1, the EC50 [3] is reported as > 195 µM (not active).

With COc1ccc(N2C(=O)CC(c3ccc(OC(C)C)cc3)C2=O)cc1 (stereo not drawn) the EC50 [3] was > 195 µM (not active).

For NC(=O)COC(=O)c1ccccc1Oc1ccccc1, the EC50 [3] was > 195 µM (not active).

For Cc1cc(C)cc(N(C(=O)Cc2cccs2)C(C(=O)NC2CCCCC2)c2ccccn2)c1 (stereo not drawn), the AC50 (Cytochrome P450 3A4) was 0.891 µM (inconclusive).

For CC(Sc1nnnn1C)C(=O)Nc1ccc(Oc2ccccc2)cc1 (stereo not drawn), the EC50 [3] was > 195 µM (not active).

In the case of CCCCn1c(SCC(=O)NCc2ccco2)nc2c(sc3ccccc32)c1=O, the EC50 [3] is reported as > 195 µM (not active).

With CCOC(=O)CSc1ccc(C(=O)NCCCN2CCOCC2)cc1[N+](=O)[O-] the EC50 [3] was > 195 µM (not active).

With O=C(c1ccco1)N(Cc1cc2ccccc2nc1O)C1CCCCC1 the EC50 [3] was > 195 µM (not active).

In the case of CCN(CC)P(=O)(Nc1ccc(C)cc1Br)c1ccc(N(C)C)cc1NC(=O)c1ccco1 (stereo not drawn), the EC50 [1] is reported as 2.27 µM (active) and the EC50 [2] is reported as > 60 µM (inconclusive).

In the case of O=C(c1ccc(Cl)cc1Cl)C1(n2cncn2)Oc2ccccc2C1O (stereo not drawn), the EC50 [1] is reported as 0.535 µM (active) and the EC50 [2] is reported as 18 µM (active).

In the case of CCOP(=O)(OCC)c1nc(-c2cccc3ccccc23)oc1NCc1ccc(OC)cc1, the EC50 [1] is reported as 2.45 µM (active) and the EC50 [2] is reported as > 60 µM (not active).

In the case of Cc1cc(C)n(C(=O)CNC(=O)Cc2ccccc2)n1, the EC50 [3] is reported as > 195 µM (not active).

In the case of COc1ccc(S(=O)(=O)NCC(c2cccnc2)N2CCN(C)CC2)cc1OC (stereo not drawn), the EC50 [3] is reported as > 195 µM (not active).

In the case of O=C(CCc1nnc2ccc(N3CCC4(CC3)OCCO4)nn12)NCc1ccc(F)cc1, the EC50 [3] is reported as > 195 µM (not active).

In the case of O=C(CN1CC=C(c2ccccc2)CC1)NC(=O)NCc1ccccc1, the EC50 [3] is reported as > 195 µM (not active).

With NC=C1C(=O)N(c2ccccc2)C(=O)N(c2ccccc2)C1=O the EC50 [3] was > 195 µM (not active).

For CO[C@H]1COC(=O)C/C=C\[C@@H](C)COC(=O)[C@@H](CCSC)NC(=O)C/C=C\[C@@H]1C, the AC50 (Cytochrome P450 3A4) was 3.98 µM (inconclusive) and 5.01 µM (inconclusive).

With CCOC(=O)N1CCN(CC(O)COCCC23CC4CC(CC(C4)C2)C3)CC1 (stereo not drawn) the EC50 [1] was 1.16 µM (active) and the EC50 [2] was > 30 µM (not active).

In the case of CCCCc1ccc(NC(S)=NCc2cccs2)cc1, the EC50 [1] is reported as 2.6 µM (active) and the EC50 [2] is reported as > 60 µM (not active).

With CCc1nc(SCC(=O)NCCc2ccc(OC)c(OC)c2)c2c(=O)n(C)c(=O)n(C)c2n1 the EC50 [3] was > 195 µM (not active).

With COCC(=O)N1CCC[C@@]2(CCN(Cc3ccccc3)C2)C1 the AC50 (Cytochrome P450 3A4) was 25.1 µM (inconclusive).

For CCC(C)C(NC(=O)C1CCC(=O)N1C(=O)OCc1ccccc1)C(=O)NC(C(=O)N1CCCC1C(N)=O)C(C)CC (stereo not drawn), the EC50 [3] was > 195 µM (not active).

For C=CCOc1ccccc1CN1CCCC(CCC(=O)N(C)CCc2ccccn2)C1 (stereo not drawn), the EC50 [1] was 0.412 µM (active) and the EC50 [2] was > 60 µM (not active).

For Cc1ccc(NC(=O)CCN2CCCCC2)cc1, the EC50 [3] was 4.53 µM (active).

For O=C(O)CC1SC(=O)N(Cc2ccccc2)C1=O (stereo not drawn), the EC50 [3] was > 195 µM (not active).

For CCOc1cc(C(=O)NCc2ccccc2)ccc1OCC(=O)N1CCOCC1, the EC50 [3] was > 195 µM (not active).

For O=c1[nH]c(NCCCO)nc2c1C1(CCCC1)Cc1ccccc1-2, the AC50 (INS1) was > 260 µM (inactive).

With C=CCn1c(SCN2C(=O)c3ccccc3C2=O)nc2ccc(Cl)cc2c1=O the AC50 (INS1) was 7.25 µM (active).

In the case of Oc1nc2ccccc2n2cnnc12, the EC50 [3] is reported as > 195 µM (not active).

For CC(C)CN(C(=O)COC(=O)c1ccc([N+](=O)[O-])s1)c1c(N)n(Cc2ccccc2)c(=O)[nH]c1=O, the EC50 [1] was 1.06 µM (active) and the EC50 [2] was 4.8 µM (active).

For O=C(c1cnccn1)N1CCC[C@@]2(CCN(c3ncccn3)C2)C1, the AC50 (Cytochrome P450 3A4) was 15.8 µM (inconclusive).

For Cc1c(C(=O)NCc2ccc3c(c2)OCO3)sc2nc(-c3ccccc3)cn12, the EC50 [3] was > 195 µM (not active).

In the case of COc1ccccc1C(=O)NCCC(=O)NNC(=O)Cn1ccc(C(F)(F)F)n1, the EC50 [3] is reported as > 195 µM (not active).

For CSc1nc(SCC(=O)NC(c2ccccc2)c2ccccc2)c2c3c(sc2n1)CN(C)CC3, the EC50 [1] was 0.237 µM (active) and the EC50 [2] was > 60 µM (not active).

For COc1ccc(C(=O)N(C)c2ccccc2C(=O)NCCc2ccccc2)cc1, the AC50 (INS1) was 4.32 µM (active).

In the case of CC1CC(c2ccccc2)n2nc(NC(=O)c3cccs3)nc2N1 (stereo not drawn), the EC50 [3] is reported as > 195 µM (not active).

For COc1ccc2[nH]cc(CCNc3ncnc4ccc(-c5ccccc5OC)cc34)c2c1, the AC50 (Cytochrome P450 3A4) was 0.794 µM (inconclusive).

With Cc1ccc(-n2c(O)cnc2Nc2nc(C)cc(C)n2)cc1 the AC50 (Cytochrome P450 3A4) was 31.6 µM (inconclusive).

For CCCC(=O)NC(N=C(S)Nc1ccc(N=Nc2ccccc2)cc1)C(Cl)(Cl)Cl (stereo not drawn), the AC50 (INS1) was 5.34 µM (active).

In the case of N=C(NOC(=O)c1cccc(Cn2cc(C(F)(F)F)ccc2=O)c1)c1ccc(Cl)cc1, the AC50 (INS1) is reported as 12.4 µM (active).

With CCNC(=O)NC(=O)c1csc([N+](=O)[O-])c1 the EC50 [1] was 0.415 µM (active) and the EC50 [2] was > 30 µM (not active).

For CCN(CC)CCOCCOc1cc(C)c(Cl)c(C)c1, the EC50 [1] was 0.408 µM (active) and the EC50 [2] was 9.47 µM (active).

With CN(C)c1ccc(-c2nc(N3CCNCC3)c3ccccc3n2)cc1 the AC50 (Cytochrome P450 3A4) was 31.6 µM (inconclusive).

In the case of C/C(=N/NC(=S)Nc1cccc(C)c1)c1cccc([N+](=O)[O-])c1, the EC50 [1] is reported as 1.63 µM (active) and the EC50 [2] is reported as > 60 µM (not active).

For c1ccc(/C(=N/Nc2nc3ccccc3s2)c2ccccn2)cc1, the AC50 (Cytochrome P450 3A4) was 3.98 µM (inconclusive).

With Cc1cc(/C=N/N2CCN(C)CC2)c(C)n1-c1ccccc1F the EC50 [1] was 1.81 µM (active) and the EC50 [2] was > 60 µM (not active).

In the case of COc1cc2c(-c3ccccc3)c(C)oc2cc1/C=N/NC(N)=S, the EC50 [1] is reported as 0.102 µM (active) and the EC50 [2] is reported as > 60 µM (not active).

In the case of C/C(=N\OC(=O)NC(C)C)c1sc(-c2ccc(Cl)cc2)nc1C, the AC50 (Cytochrome P450 3A4) is reported as 31.6 µM (inconclusive).
